Data set [1] is described as follows: Aqueous solubility determination (Millipore Multiscreen solubility filter plate, UV/vis). In kind it is physicochemical. Conditions: Universal Aqueous Buffer pH 7.4, 90 minutes at room temperature. The protocol: Aqueous Solubility Determination. The following procedure was used to obtain the aqueous solubility results summarized in Example 4. Step 1. Determination of optimal UV/vis wavelengths and generation of standard curves for a compound of interest: • (1) For eight standard calibration curves (one plate), prepare 34 mL of 50:50 (v:v) universal buffer:acetonitrile in a 50 mL tube. • (2) Using a multichannel pipet, dispense (in μL) the buffer:acetonitrile in a deep well plate as follows:
• (6) Cover plate with lid and shake (200-300 rpm) at room temperature for 20 minutes. • (7) Mix all wells by pipetting up and down 10 times. • (8) Transfer 120 μL from each well to a UV transparent plate. Cover and shake for 3-5 minutes. Remove any bubbles in the wells using a pipet. • (9) Read from 220 nm to 500 nm at 10 nm increments on a spectrophotometer (e.g., SpectraMax®).
Step 2. […]
Solubility Protocol: • (a) Add 285 μL of Universal Aqueous Buffer to desired wells of the Millipore™ Multiscreen® Solubility filter plate. • (b) Add 15 μL of 10 mM compound in DMSO to the appropriate wells. […] Remove any bubbles with a pipet. • (i) Measure the absorbance of each well in the plate on the spectrophotometer (UV/vis) at the desired wavelength. […]
The aqueous solubility of the compounds shown here was determined using the procedures outlined in Example 1.

Data set [2] is described as follows: TP levels in mouse brain after feeding in diet (LC/MS). In kind it is in vivo. To be noted: CD-1 mice fed 200 or 400 mg/kg diet for 3.5 days. The protocol:
FIG. 7. […] CD-1 mice were fed either 200 or 400 mg/kg diet of either TP-319 or TP-500 for 3.5 days, and TP levels in the brains of the mice were analyzed by LC/MS. The structures of TP-319 and TP-500 are shown herein.

The test system of data set [3] is NO production in RAW264.7 macrophages. As to the kind of experiment: Inhibition of NO production in IFNγ-treated RAW264.7 macrophages (Griess reagent). The class given is cell-based, mouse. To be noted: Mus musculus, RAW264.7, RAW264.7 macrophages pre-treated 2 hours, then 20 ng/ml IFNγ for 24 hours. The protocol:
(§1) FIGS. 1-4, 6 and 8. Inhibition of NO Production. RAW264.7 macrophages were pre-treated with DMSO or drugs at various concentrations (nM) for 2 hours, then treated with 20 ng/ml IFNγ for 24 hours. NO concentration in media was determined using a Griess reagent system; cell viability was determined using WST-1 reagent.
(§2) Nitric Oxide production and cell viability. RAW264.7 macrophages were pre-treated with DMSO or drugs for 2 hours, then treated with recombinant mouse IFNγ (Sigma) for 24 hours. NO concentration in media was determined using the Griess reagent system (Promega). Cell viability was determined using WST-1 reagent (Roche).

The subject of another data set is γ-GCS. As to the kind of experiment: Nrf2 target gene induction, MDA-MB-435 (qPCR): γ-GCS. The class given is cell-based. Conditions: Homo sapiens; MDA-MB-435, 250 nM, 16 hours, mRNA by qPCR. The protocol: (§3) Nrf2 target gene induction. MDA-MB-435 human melanoma cells were treated with vehicle (DMSO) or the indicated compounds and concentrations for 16 hours. HO-1, thioredoxin reductase-1 (TrxR1), γ-glutamylcysteine synthetase (γ-GCS), and ferritin heavy chain mRNA levels were quantified using qPCR and were normalized relative to a DMSO-treated sample run in parallel. Values are averages of duplicate wells. Primer sequences are as follows.
(In qPCR the cycle at which signal appears reflects the starting amount.)

In the next data set the test system is HO-1. As to the kind of experiment: Nrf2 target gene induction, MDA-MB-435 (qPCR): HO-1. Conditions: Homo sapiens; MDA-MB-435, 250 nM, 16 hours, mRNA by qPCR. The class given is cell-based. As to the method:
as §3

For another data set, the system named is RAW264.7 macrophages. As to the kind of experiment: Cell viability of RAW264.7 macrophages (WST-1 reagent). In kind it is cell-based, mouse. Conditions: Mus musculus, RAW264.7, 24 h, cell viability, RAW264.7, 20 ng/ml IFNγ 24 hours, WST-1 reagent; read-out: RAW264.7 (20 ng/ml IFNγ) WST-1 IC50. As to the method: as §1, §2
For orientation: Tetrazolium dyes change colour on reduction, which living cells bring about.

For the next data set, the system named is NQO1. As to the kind of experiment: Nrf2 target gene induction, MDA-MB-435 (qPCR): NQO1. The class given is cell-based. Conditions: Homo sapiens; MDA-MB-435, 250 nM, 16 hours, mRNA by qPCR.

Molecules are shown by their SMILES. Some results are limits rather than exact numbers.

The Aqueous Solubility is the concentration that dissolves in the medium under given conditions. For the compound `CC1(C)CC[C@]2(N)CC[C@]3(C)[C@H](C(=O)C[C@@H]4[C@@]5(C)C=C(C#N)C(=O)C(C)(C)[C@@H]5CC[C@]43C)[C@@H]2C1` [Compound 63198], in data set [1], the “Aqueous Solubility” value was found to be 163.6 µM.
As to `CC1(C)CC[C@]2(C(=O)NCC(F)(F)F)CC[C@]3(C)[C@H](C(=O)C=C4[C@@]5(C)C=C(C#N)C(=O)C(C)(C)[C@@H]5CC[C@]43C)[C@@H]2C1` [TP-500], the “TP levels in the brains of the mice” value in data set [2] is given as “Higher Levels in Mouse Brain than CDDO-EA (TP-319)”.
The fold induction is the signal under treatment as a multiple of the control signal. Regarding `CC1(C)CC[C@@]23CC[C@@]4(C)[C@]5(C)CC[C@H]6C(C)(C)C(=O)C(C#N)=C[C@]6(C)[C@H]5CC(=O)[C@]4(OC2CO)[C@@H]3C1` (stereo partly shown) [Compound 63224], the IC50 was ~20 nM in data set [3] and > 200 nM in the data set on RAW264.7 macrophages. Moreover, the fold induction at 0.25 µM is 8 in the data set on γ-GCS, 4 in the data set with HO-1 and 2.5 with NQO1.
As to `CC1(C)CC[C@]2(CN)CC[C@]3(C)[C@H](C(=O)C[C@@H]4[C@@]5(C)C=C(C#N)C(=O)C(C)(C)[C@@H]5CC[C@]43C)[C@@H]2C1` [Compound 63214, (6aR,6bR,8aS,12aS,12bR,14bR)-8a-(aminomethyl)-4,4,6a,6b,11,11,14b-heptamethyl-3,13-dioxo-3,4,4a,5,6,6a,6b,7,8,8a,9,10,11,12,12a,12b,13,14,14a,14b-icosahydropicene-2-carbonitrile], the IC50 in data set [3] is ~25 nM; in the data set on RAW264.7 macrophages it was > 200 nM. The fold induction at 0.25 µM in the data set on γ-GCS came out at 3; with HO-1 it was 2; with NQO1 it was 1.8.
`CC1(C)CC[C@]2([C@@H](O)CO)CC[C@]3(C)[C@H](C(=O)C[C@@H]4[C@@]5(C)C=C(C#N)C(=O)C(C)(C)[C@@H]5CC[C@]43C)[C@@H]2C1` [Compound 63221, (4aR,6aR,6bR,8aS,12aS,12bR,14aR,14bR)-8a-((R)-1,2-dihydroxyethyl)-4,4,6a,6b,11,11,14b-heptamethyl-3,13-dioxo-3,4,4a,5,6,6a,6b,7,8,8a,9,10,11,12,12a,12b,13,14,14a,14b-icosahydropicene-2-carbonitrile]: the results for the IC50 (in data set [3]; in the data set on RAW264.7 macrophages) were ~15 nM and > 200 nM, respectively. For the same compound, the results for the fold induction at 0.25 µM in the data set with γ-GCS, in the data set on HO-1 and in the data set with NQO1 were 4.5, 2 and 2, respectively.
On to `CC1(C)CC[C@]2(CNC(=O)C(F)(F)F)CC[C@]3(C)[C@H](C(=O)C[C@@H]4[C@@]5(C)C=C(C#N)C(=O)C(C)(C)[C@@H]5CC[C@]43C)[C@@H]2C1` [Compound 63226, N-(((4aS,6aR,6bR,12aR,14aR,14bS)-11-cyano-2,2,6a,6b,9,9,12a-heptamethyl-10,14-dioxo-1,2,3,4,4a,5,6,6a,6b,7,8,8a,9,10,12a,12b,13,14,14a,14b-icosahydropicen-4a-yl)methyl)-2,2,2-trifluoroacetamide], for which the figures for the IC50 (in data set [3]; in the data set on RAW264.7 macrophages) were ~12 nM and > 200 nM, respectively. For the same compound, the fold induction at 0.25 µM in the data set on γ-GCS amounted to 6; in the data set with HO-1, 4; in the data set with NQO1, 2.
On to `CC1(C)CC[C@]2(N)CC[C@]3(C)[C@H](C(=O)C[C@@H]4[C@@]5(C)C=C(C#N)C(=O)C(C)(C)[C@@H]5CC[C@]43C)[C@@H]2C1` [Compound 63208], for which, in data set [1], the “Aqueous Solubility” value was 9.49 µM.
Turning to `CC1(C)CC[C@]2(CNS(C)(=O)=O)CC[C@]3(C)[C@H](C(=O)CC4[C@@]5(C)C=C(C#N)C(=O)C(C)(C)C5CC[C@]43C)[C@@H]2C1` (stereo partly drawn) [Compound 63220, N-(((4aS,6aR,6bR,12aR,14aR,14bS)-11-cyano-2,2,6a,6b,9,9,12a-heptamethyl-10,14-dioxo-1,2,3,4,4a,5,6,6a,6b,7,8,8a,9,10,12a,12b,13,14,14a,14b-icosahydropicen-4a-yl)methyl)methanesulfonamide], the values for the IC50 (in data set [3]; in the data set with RAW264.7 macrophages) were ~15 nM and > 200 nM, respectively. Besides, the fold induction at 0.25 µM with γ-GCS was 6; in the data set on HO-1, 3; in the data set on NQO1 it was 2.
